{"source": "ChEMBL document CHEMBL5674886", "about": "“GLUT4 expression and glucose transport in human induced pluripotent stem cell-derived cardiomyocytes” (PLoS One, 2019)", "assay_type_in_all_cases": "cell-based", "key": {"[1]": {"target": "T1, Solute carrier family 2, facilitated glucose transporter member 1 (Mus musculus) (UniProt P17809)", "T1 sequence (whole entry)": "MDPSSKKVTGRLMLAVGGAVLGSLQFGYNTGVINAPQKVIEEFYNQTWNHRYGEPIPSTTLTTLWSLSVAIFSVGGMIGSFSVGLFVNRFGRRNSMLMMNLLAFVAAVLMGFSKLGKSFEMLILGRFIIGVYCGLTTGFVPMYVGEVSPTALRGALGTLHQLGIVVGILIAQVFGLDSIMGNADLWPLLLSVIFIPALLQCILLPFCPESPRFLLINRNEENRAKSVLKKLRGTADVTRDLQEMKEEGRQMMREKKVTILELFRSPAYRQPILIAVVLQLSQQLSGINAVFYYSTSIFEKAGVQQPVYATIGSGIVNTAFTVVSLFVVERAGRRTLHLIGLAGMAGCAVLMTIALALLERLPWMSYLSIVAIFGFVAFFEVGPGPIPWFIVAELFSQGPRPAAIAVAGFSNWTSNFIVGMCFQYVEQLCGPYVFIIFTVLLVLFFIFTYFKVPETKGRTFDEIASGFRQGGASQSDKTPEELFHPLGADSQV", "assay": "Inhibition of GLUT1 in mouse 3T3-L1 cells assessed as reduction in insulin-stimulated [3H]-2-deoxyglucose uptake at 2 uM incubated for 30 mins by [3H]-2-deoxyglucose uptake assay"}, "[2]": {"target": "T2, Solute carrier family 2, facilitated glucose transporter member 4 (Homo sapiens, UniProt P14672)", "T2 sequence (P14672 whole entry)": "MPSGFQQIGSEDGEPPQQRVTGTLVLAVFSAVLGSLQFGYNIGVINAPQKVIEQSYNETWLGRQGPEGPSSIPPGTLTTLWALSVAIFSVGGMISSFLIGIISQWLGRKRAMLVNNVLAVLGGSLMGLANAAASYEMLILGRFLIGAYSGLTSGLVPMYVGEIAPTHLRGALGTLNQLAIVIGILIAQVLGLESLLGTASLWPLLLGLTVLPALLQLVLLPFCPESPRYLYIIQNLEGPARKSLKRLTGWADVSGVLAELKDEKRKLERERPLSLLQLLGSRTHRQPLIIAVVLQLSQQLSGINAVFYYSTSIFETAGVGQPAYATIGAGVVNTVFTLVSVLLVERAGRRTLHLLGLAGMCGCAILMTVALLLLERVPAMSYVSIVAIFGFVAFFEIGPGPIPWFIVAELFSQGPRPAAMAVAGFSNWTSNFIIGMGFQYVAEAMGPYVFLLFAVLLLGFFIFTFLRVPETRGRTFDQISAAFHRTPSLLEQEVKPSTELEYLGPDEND", "assay": "Inhibition of human GLUT4 expressed in CHO cells measured after 15 mins by cell-titer-Glo luminescent cell viability assay"}, "[3]": {"target": "T1, Solute carrier family 2, facilitated glucose transporter member 1 (Mus musculus)", "assay": "Inhibition of GLUT1 in mouse 3T3-L1 cells assessed as reduction in insulin-stimulated [3H]-2-deoxyglucose uptake at 20 nM incubated for 30 mins by [3H]-2-deoxyglucose uptake assay"}}, "data": [{"smiles": "Cc1c(NC(=O)c2cc(C(N)=O)nc3cc(F)ccc23)c(C(F)(F)F)nn1Cc1ccc(C#N)cc1", "note": "[BAY-876]", "values": [{"measurement": "inhibition", "setting": "[1]", "value": 100, "unit": "%"}, {"measurement": "IC50", "setting": "[2]", "value": 200, "unit": "nM"}, {"measurement": "inhibition", "setting": "[3]", "value": 25, "unit": "%"}]}]}
